Reference: US20260015358A1, “BICYCLIC DERIVATIVES, COMPOSITIONS AND USES THEREOF” (Danatlas Pharmaceuticals Co., Ltd., priority 2023, published 2026)

Biological target: WRN [UniPro: Q14191 (WRN_HUMAN), N500-C946] (Homo sapiens (Human), UniProt Q14191)
Assay: WRN unwinding assay (FORKF DNA, fluorescence)
Assay type: biochemical
Conditions: Table 14
Protocol: WRN unwinding assay was initiated to evaluate potential inhibitory effect of compounds for WEN helicase activity. WRN [UniPro: Q14191 (WRN_HUMAN), N500-C946] was expressed and purified in insect system and stored at −80° C. in aliquots. […] Compounds dissolved in DMSO (Sigma, D8418) were plated into a 96-well intermediate plate (BioFil, VWP-032-096) for 3-fold serial titration for 10 points using DMSO, and well-to-well transfer the titrated compounds into another 96-well intermediate plate including assay buffer in advance. Shake the 96-well intermediate plate at 600 rpm for 10 min. to fully mix. Specifically, a 3× working mixture of WRN was diluted to a concentration of 60 nM in assay buffer. […] After centrifuging at 1000 rpm and shaking at 500 rpm, the assay plate was pre-incubated for 30 min. Then, […] 3×FORKF DNA and ATP working mixture was dispensed into assay plate. Plate was sealed, centrifuged and incubated for an additional 40 min. at 25° C. […] Each concentration of compound was tested in duplicates in the assay plate. Average fluorescence signal of high control (Wells with 1% DMSO) was calculated as High Control (HC). Average fluorescence signal of low control (Wells with no WRN protein) was calculated as Low control (LC).
IC50 values were determined by fitting the data to the standard 4 parameters with Hill Slope using GraphPad Prism software.

WRN [UniPro: Q14191 (WRN_HUMAN), N500-C946], sequence (Q14191 500-946): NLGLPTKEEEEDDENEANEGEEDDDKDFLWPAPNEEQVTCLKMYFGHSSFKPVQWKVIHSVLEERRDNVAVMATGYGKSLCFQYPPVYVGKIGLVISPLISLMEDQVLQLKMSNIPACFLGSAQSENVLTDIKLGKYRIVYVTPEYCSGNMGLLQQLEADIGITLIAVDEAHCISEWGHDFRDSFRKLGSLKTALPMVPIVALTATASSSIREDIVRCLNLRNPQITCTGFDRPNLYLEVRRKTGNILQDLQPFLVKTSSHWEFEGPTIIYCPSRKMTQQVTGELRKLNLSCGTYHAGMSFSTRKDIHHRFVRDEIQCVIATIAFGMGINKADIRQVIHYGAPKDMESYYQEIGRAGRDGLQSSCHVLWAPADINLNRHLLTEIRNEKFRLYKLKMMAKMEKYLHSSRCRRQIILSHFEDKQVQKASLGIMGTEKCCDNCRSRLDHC

Structure (SMILES) | IC50 [nM]
CCc1c(N2CCN(C(=O)N(C)C)CC2)c(=O)n2nc(C3=CCOCC3)nc2n1CC(=O)Nc1ccc(C(F)(F)F)cc1Cl [Example 10, 4-(4-(2-((2-Chloro-4-(trifluoromethyl)phenyl)amino)-2-oxoethyl)-2-(3,6-dihydro-2H-pyran-4-yl)-5-ethyl-7-oxo-4,7-dihydro-[1,2,4]triazolo[1,5-a]pyrimidin-6-yl)-N,N-dimethylpiperazine-1-carboxamide] | > 1000
CCc1c(N2CCN(C(=O)C(C)O)CC2)c(=O)n2nc(C3=CCOCC3)nc2n1CC(=O)Nc1ccc(C(F)(F)F)cc1Cl (stereo not shown) [Example 12, N-(2-Chloro-4-(trifluoromethyl)phenyl)-2-(2-(3,6-dihydro-2H-pyran-4-yl)-5-ethyl-6-(4-(2-hydroxypropanoyl)piperazin-1-yl)-7-oxo-[1,2,4]triazolo[1,5-a]pyrimidin-4(7H)-yl)acetamide] | 100 to 1000
CCc1c(N2CCN(C(=O)C3CC3)CC2)c(=O)n2nc(C3=CCOCC3)nc2n1CC(=O)Nc1ccc(C(F)(F)F)cc1Cl [Example 13, N-(2-Chloro-4-(trifluoromethyl)phenyl)-2-(6-(4-(cyclopropanecarbonyl)piperazin-1-yl)-2-(3,6-dihydro-2H-pyran-4-yl)-5-ethyl-7-oxo-[1,2,4]triazolo[1,5-a]pyrimidin-4(7H)-yl)acetamide] | 100 to 1000
CCNC(=O)N1CCN(c2c(CC)n(CC(=O)Nc3ccc(C(F)(F)F)cc3Cl)c3nc(C4=CCOCC4)nn3c2=O)CC1 [Example 15, 4-(4-(2-((2-Chloro-4-(trifluoromethyl)phenyl)amino)-2-oxoethyl)-2-(3,6-dihydro-2H-pyran-4-yl)-5-ethyl-7-oxo-4,7-dihydro-[1,2,4]triazolo[1,5-a]pyrimidin-6-yl)-N-ethylpiperazine-1-carboxamide] | 100 to 1000
CCc1c(N2CCN(C(=O)CCO)CC2)c(=O)n2nc(C3=CCOCC3)nc2n1CC(=O)Nc1ccc(C(F)(F)F)cc1Cl [Example 16, N-(2-Chloro-4-(trifluoromethyl)phenyl)-2-(2-(3,6-dihydro-2H-pyran-4-yl)-5-ethyl-6-(4-(3-hydroxypropanoyl)piperazin-1-yl)-7-oxo-[1,2,4]triazolo[1,5-a]pyrimidin-4(7H)-yl)acetamide] | 100 to 1000
CCc1c(N2CCN(/C(=N\O)c3ncccc3F)CC2)c(=O)n2nc(C3=CCOCC3)nc2n1CC(=O)Nc1ccc(C(F)(F)F)cc1Cl [Example 21, (Z)—N-(2-Chloro-4-(trifluoromethyl)phenyl)-2-(2-(3,6-dihydro-2H-pyran-4-yl)-5-ethyl-6-(4-((3-fluoropyridin-2-yl) (hydroxyimino)methyl)piperazin-1-yl)-7-oxo-[1,2,4]triazolo[1,5-a]pyrimidin-4(7H)-yl)acetamide] | > 1000
CCc1c(N2CCN(C(=O)NCC3CC3)CC2)c(=O)n2nc(C3=CCOCC3)nc2n1CC(=O)Nc1ccc(C(F)(F)F)cc1Cl [Example 24, 4-(4-(2-((2-Chloro-4-(trifluoromethyl)phenyl)amino)-2-oxoethyl)-2-(3,6-dihydro-2H-pyran-4-yl)-5-ethyl-7-oxo-4,7-dihydro-[1,2,4]triazolo[1,5-a]pyrimidin-6-yl)-N-(cyclopropylmethyl)piperazine-1-carboxamide] | 100 to 1000
CCc1c(N2CCN(C(=O)Nc3c(C(F)(F)F)ncn3Cc3ccc(OC)cc3)CC2)c(=O)n2nc(C3=CCOCC3)nc2n1CC(=O)Nc1ccc(C(F)(F)F)cc1Cl [Example 26, 4-(4-(2-((2-Chloro-4-(trifluoromethyl)phenyl)amino)-2-oxoethyl)-2-(3,6-dihydro-2H-pyran-4-yl)-5-ethyl-7-oxo-4,7-dihydro-[1,2,4]triazolo[1,5-a]pyrimidin-6-yl)-N-(1-(4-methoxybenzyl)-4-(trifluoromethyl)-1H-imidazol-5-yl)piperazine-1-carboxamide] | > 1000
CCNS(=O)(=O)N1CCN(c2c(CC)n(CC(=O)Nc3ccc(C(F)(F)F)cc3Cl)c3nc(C4=CCOCC4)nn3c2=O)CC1 [Example 33, N-(2-Chloro-4-(trifluoromethyl)phenyl)-2-(2-(3,6-dihydro-2H-pyran-4-yl)-5-ethyl-6-(4-(N-ethylsulfamoyl)piperazin-1-yl)-7-oxo-[1,2,4]triazolo[1,5-a]pyrimidin-4(7H)-yl)acetamide] | 100 to 1000
CCc1c(N2CCN(C(=O)NS(=O)(=O)C3CC3)CC2)c(=O)n2nc(C3=CCOCC3)nc2n1CC(=O)Nc1ccc(C(F)(F)F)cc1Cl [Example 34, 4-(4-(2-((2-Chloro-4-(trifluoromethyl)phenyl)amino)-2-oxoethyl)-2-(3,6-dihydro-2H-pyran-4-yl)-5-ethyl-7-oxo-4,7-dihydro-[1,2,4]triazolo[1,5-a]pyrimidin-6-yl)-N-(cyclopropylsulfonyl)piperazine-1-carboxamide] | 100 to 1000
CCc1c(N2CCN(C(=O)CN)CC2)c(=O)n2nc(C3=CCOCC3)nc2n1CC(=O)Nc1ccc(C(F)(F)F)cc1Cl [Example 38, N-(2-Chloro-4-(trifluoromethyl)phenyl)-2-(2-(3,6-dihydro-2H-pyran-4-yl)-5-ethyl-6-(4-glycylpiperazin-1-yl)-7-oxo-[1,2,4]triazolo[1,5-a]pyrimidin-4(7H)-yl)acetamide] | 100 to 1000

More lines, now with the values ahead:

IC50 [nM] | Structure (SMILES)
100 to 1000 | CCc1c(N2CCN(C(=O)CNS(=O)(=O)CC)CC2)c(=O)n2nc(C3=CCOCC3)nc2n1CC(=O)Nc1ccc(C(F)(F)F)cc1Cl [Example 39, N-(2-Chloro-4-(trifluoromethyl)phenyl)-2-(2-(3,6-dihydro-2H-pyran-4-yl)-5-ethyl-6-(4-((ethylsulfonyl)glycyl)piperazin-1-yl)-7-oxo-[1,2,4]triazolo[1,5-a]pyrimidin-4(7H)-yl)acetamide]
> 1000 | CCOC(=O)N1CCN(c2c(CC)n(CC(=O)Nc3ccc(C(F)(F)F)cc3Cl)c3nc(C4=CCOCC4)nn3c2=O)CC1 [Example 40, Ethyl 4-(4-(2-((2-chloro-4-(trifluoromethyl)phenyl)amino)-2-oxoethyl)-2-(3,6-dihydro-2H-pyran-4-yl)-5-ethyl-7-oxo-4,7-dihydro-[1,2,4]triazolo[1,5-a]pyrimidin-6-yl)piperazine-1-carboxylate]
> 1000 | CCc1c(N2CCN(C(=O)c3cn(C)c(=O)n(C)c3=O)CC2)c(=O)n2nc(C3=CCOCC3)nc2n1CC(=O)Nc1ccc(C(F)(F)F)cc1Cl [Example 51, N-(2-Chloro-4-(trifluoromethyl)phenyl)-2-(2-(3,6-dihydro-2H-pyran-4-yl)-6-(4-(1,3-dimethyl-2,4-dioxo-1,2,3,4-tetrahydropyrimidine-5-carbonyl)piperazin-1-yl)-5-ethyl-7-oxo-[1,2,4]triazolo[1,5-a]pyrimidin-4(7H)-yl)acetamide]
> 1000 | CCc1c(N2CCN(C(=O)c3cnc4ncnn4c3O)CC2)c(=O)n2nc(C3=CCOCC3)nc2n1CC(=O)Nc1ccc(C(F)(F)F)cc1Cl [Example 52, N-(2-Chloro-4-(trifluoromethyl)phenyl)-2-(2-(3,6-dihydro-2H-pyran-4-yl)-5-ethyl-6-(4-(7-hydroxy-[1,2,4]triazolo[1,5-a]pyrimidine-6-carbonyl)piperazin-1-yl)-7-oxo-[1,2,4]triazolo[1,5-a]pyrimidin-4(7H)-yl)acetamide]
100 to 1000 | CCc1c(N2CCN(C(=O)CNC(=O)c3ccc(Cl)cc3Cl)CC2)c(=O)n2nc(C3=CCOCC3)nc2n1CC(=O)Nc1ccc(C(F)(F)F)cc1Cl [Example 127, 2,4-Dichloro-N-(2-(4-(4-(2-((2-chloro-4-(trifluoromethyl)phenyl)amino)-2-oxoethyl)-2-(3,6-dihydro-2H-pyran-4-yl)-5-ethyl-7-oxo-4,7-dihydro-[1,2,4]triazolo[1,5-a]pyrimidin-6-yl)piperazin-1-yl)-2-oxoethyl)benzamide]
< 100 | CCc1c(N2CCN(C(=O)CN(C)C(=O)c3ccccc3)CC2)c(=O)n2nc(C3=CCOCC3)nc2n1CC(=O)Nc1ccc(C(F)(F)F)cc1Cl [Example 135, N-(2-(4-(4-(2-((2-Chloro-4-(trifluoromethyl)phenyl)amino)-2-oxoethyl)-2-(3,6-dihydro-2H-pyran-4-yl)-5-ethyl-7-oxo-4,7-dihydro-[1,2,4]triazolo[1,5-a]pyrimidin-6-yl)piperazin-1-yl)-2-oxoethyl)-N-methylbenzamide]
> 1000 | CCc1c(N2CCN(C(=O)C(C)(C)NC(=O)c3ccccc3)CC2)c(=O)n2nc(C3=CCOCC3)nc2n1CC(=O)Nc1ccc(C(F)(F)F)cc1Cl [Example 137, N-(1-(4-(4-(2-((2-Chloro-4-(trifluoromethyl)phenyl)amino)-2-oxoethyl)-2-(3,6-dihydro-2H-pyran-4-yl)-5-ethyl-7-oxo-4,7-dihydro-[1,2,4]triazolo[1,5-a]pyrimidin-6-yl)piperazin-1-yl)-2-methyl-1-oxopropan-2-yl)benzamide]
> 1000 | CCc1c(N2CCC3(CCN(C(=O)CNC(=O)c4ccccc4)C3)C2)c(=O)n2nc(C3=CCOCC3)nc2n1CC(=O)Nc1ccc(C(F)(F)F)cc1Cl (stereo not shown) [Example 139, N-(2-(7-(4-(2-((2-Chloro-4-(trifluoromethyl)phenyl)amino)-2-oxoethyl)-2-(3,6-dihydro-2H-pyran-4-yl)-5-ethyl-7-oxo-4,7-dihydro-[1,2,4]triazolo[1,5-a]pyrimidin-6-yl)-2,7-diazaspiro[4.4]nonan-2-yl)-2-oxoethyl)benzamide]
